Non-standard residues stand in square brackets, D forms with d. Residues, ends and D or L forms follow the SMILES beside them. Phe(3,4-Cl2) = N[C@@H](Cc1ccc(Cl)c(Cl)c1)C(=O)O; pGlu = O=C1CC[C@@H](C(=O)O)N1
Assays:
[1] = Inhibition of Escherichia coli polymerase 3alpha/beta subunit homo dimer interaction by plate binding assay
[2] = Binding affinity to Escherichia coli polymerase 3 beta subunit homo dimer by SPR assay

Compound: CC(=O)N[C@@H](CCC(N)=O)C(=O)N[C@@H](CC(C)C)C(=O)N[C@@H](CC(=O)O)C(=O)N[C@@H](CC(C)C)C(=O)N[C@@H](Cc1ccccc1Cl)C(=O)O
- IC50 [1]: 34 nM
- IC50 [2]: 117 nM

Compound: CC[C@H](C)[C@H](N)C(=O)NCC(=O)N[C@@H](CCC(N)=O)C(=O)N[C@@H](C)C(=O)N[C@@H](CC(=O)O)C(=O)N[C@@H](CCSC)C(=O)N[C@@H](Cc1ccccc1)C(=O)NCC(=O)N[C@H](C(=O)O)C(C)C
- IC50 [1]: 96000 nM
- IC50 [2]: 3000 nM

Compound: CC(=O)N[C@@H](CCC(N)=O)C(=O)N[C@@H](CC(C)C)C(=O)N[C@@H](CC(=O)O)C(=O)N[C@@H](CC(C)C)C(=O)N[C@@H](Cc1ccccc1)C(=O)O
- IC50 [1]: 70 nM
- IC50 [2]: 400 nM

Compound: CC(=O)N[C@@H](CCC(N)=O)C(=O)N[C@@H](CC(C)C)C(=O)N[C@@H](CC(=O)O)C(=O)N[C@@H](CC(C)C)C(=O)N[C@@H](Cc1ccc(Cl)c(Cl)c1)C(=O)O
- IC50 [1]: 21 nM
- IC50 [2]: 23 nM

Compound: CC(C)C[C@H](NC(=O)[C@H](CC(=O)O)NC(=O)[C@H](CC(C)C)NC(=O)[C@H](CCC(N)=O)NC(=O)C(C)(C)C)C(=O)N[C@@H](Cc1ccc(Cl)c(Cl)c1)C(=O)O
- IC50 [1]: 62 nM
- IC50 [2]: 69 nM

Compound: COc1ccc(C(=O)N[C@@H](CCC(N)=O)C(=O)N[C@@H](CC(C)C)C(=O)N[C@@H](CC(=O)O)C(=O)N[C@@H](CC(C)C)C(=O)N[C@@H](Cc2ccc(Cl)c(Cl)c2)C(=O)O)c(OC)c1
- IC50 [1]: 42 nM
- IC50 [2]: 27 nM

Compound: CC(=O)N[C@@H](CCC(N)=O)C(=O)N[C@@H](CC(C)C)C(=O)N[C@@H](CC(=O)O)C(=O)N[C@@H](CC(C)C)C(=O)N[C@@H](Cc1ccc(Cl)cc1)C(=O)O
- IC50 [1]: 27 nM
- IC50 [2]: 20 nM

Compound: H-IGQADFFGV-OH
- IC50 [1]: 174000 nM

Compound: CC(C)C[C@H](NC(=O)[C@H](CC(=O)O)NC(=O)[C@H](CC(C)C)NC(=O)[C@H](CCC(N)=O)NC(=O)COCc1ccccc1)C(=O)N[C@@H](Cc1ccc(Cl)c(Cl)c1)C(=O)O
- IC50 [1]: 67 nM
- IC50 [2]: 337 nM

Compound: NC(CCC(=O)NC(CSCC(=O)c1ccc(Br)cc1)C(=O)NCC(=O)O)C(=O)O (stereo not given)
- IC50 [1]: 210000 nM

Compound: H-IGQADWFGV-OH
- IC50 [1]: 345000 nM

Compound: CSCC[C@H](NC(=O)[C@H](CC(=O)O)NC(=O)[C@H](CC(C)C)NC(=O)[C@H](CCC(N)=O)NC(C)=O)C(=O)N[C@@H](Cc1ccc(Cl)c(Cl)c1)C(=O)O (Ac-QLDM[Phe(3,4-Cl2)]-OH)
- IC50 [1]: 37 nM
- IC50 [2]: 33 nM

Compound: CC(C)C[C@H](NC(=O)[C@H](CC(=O)O)NC(=O)[C@H](CC(C)C)NC(=O)[C@@H]1CCC(=O)N1)C(=O)N[C@@H](Cc1ccccc1)C(=O)O ([pGlu]LDLF-OH)
- IC50 [1]: 4500 nM

Compound: H-IGQADMWGV-OH
- IC50 [1]: 282000 nM

Compound: CCC/C(=N\OC/C(Cl)=C/c1ccc(Cl)cc1)C1C(=O)CC(C)(C)CC1=O
- IC50 [1]: 350000 nM

Compound: CC(C)C[C@H](NC(=O)[C@H](CC(=O)O)NC(=O)[C@H](CC(C)C)NC(=O)[C@H](CCC(N)=O)NC(=O)Cc1c[nH]c2ccccc12)C(=O)N[C@@H](Cc1ccc(Cl)c(Cl)c1)C(=O)O
- IC50 [1]: 66 nM
- IC50 [2]: 537 nM

Compound: CC(=O)N[C@@H](CCC(N)=O)C(=O)N[C@@H](CC(C)C)C(=O)N[C@@H](CC(=O)O)C(=O)N[C@@H](CC(C)C)C(=O)N[C@@H](Cc1cccc(Cl)c1)C(=O)O
- IC50 [1]: 11 nM
- IC50 [2]: 49 nM

Compound: H-IGQADLFGV-OH
- IC50 [1]: 56000 nM

Compound: CCCC(C)(c1ccc(OC(=O)Cc2ccc([N+](=O)[O-])cc2)cc1)c1ccc(OC(=O)Nc2ccc([N+](=O)[O-])cc2)cc1 (stereo not given)
- IC50 [1]: 300000 nM

Compound: COC(=O)N[C@@H](CCC(N)=O)C(=O)N[C@@H](CC(C)C)C(=O)N[C@@H](CC(=O)O)C(=O)N[C@@H](CC(C)C)C(=O)N[C@@H](Cc1ccc(Cl)c(Cl)c1)C(=O)O
- IC50 [1]: 86 nM
- IC50 [2]: 89 nM

Compound: CC(C)C[C@H](NC(=O)[C@H](CC(=O)O)NC(=O)[C@H](CC(C)C)NC(=O)[C@H](CCC(N)=O)NC(=O)c1ccccc1)C(=O)N[C@@H](Cc1ccc(Cl)c(Cl)c1)C(=O)O
- IC50 [1]: 69 nM
- IC50 [2]: 456 nM

Compound: CCC(=O)N[C@@H](CCC(N)=O)C(=O)N[C@@H](CC(C)C)C(=O)N[C@@H](CC(=O)O)C(=O)N[C@@H](CC(C)C)C(=O)N[C@@H](Cc1ccc(Cl)c(Cl)c1)C(=O)O
- IC50 [1]: 63 nM
- IC50 [2]: 61 nM

Compound: H-IGQADIFGV-OH
- IC50 [1]: 315000 nM

Compound: CCC/C(=N\OCc1ccc(-c2ccccc2)cc1)C1C(=O)CC(C)(C2OCC(C)(C)CO2)OC1=O (stereo not given)
- IC50 [1]: 270000 nM

Compound: CC(C)C[C@H](NC(=O)[C@H](CC(=O)O)NC(=O)[C@H](CC(C)C)NC(=O)[C@@H](N)CCC(N)=O)C(=O)N[C@@H](Cc1ccccc1)C(=O)O
- IC50 [1]: 2600 nM
- IC50 [2]: 620 nM

Compound: H-IGQLSLFGV-OH
- IC50 [1]: 2300 nM
- IC50 [2]: 550 nM

Compound: CCC/C(=N\OCc1ccc(-c2ccc(F)cc2)cc1)C1C(=O)CC(C)(C)C(C#N)C1=O (stereo not given)
- IC50 [1]: 40000 nM

Compound: CC(C)COC(=O)N[C@@H](CCC(N)=O)C(=O)N[C@@H](CC(C)C)C(=O)N[C@@H](CC(=O)O)C(=O)N[C@@H](CC(C)C)C(=O)N[C@@H](Cc1ccc(Cl)c(Cl)c1)C(=O)O
- IC50 [1]: 20 nM
- IC50 [2]: 41 nM

— ChEMBL document CHEMBL1821636, “Binding inhibitors of the bacterial sliding clamp by design” (J Med Chem, 2011)
